Laboratory results: ChEMBL document CHEMBL1124269, “1,3-Diamino-6,7-dimethoxyisoquinoline derivatives as potential alpha 1-adrenoceptor antagonists” (J Med Chem, 1988)

Columns and labels:
Rattus norvegicus [1] = assay: Percent reduction of SHR (Spontaneous Hypertensive Rat) blood pressure at 1 hr at a dose 10 mg/kg peroral administration; format: functional; details: route oral
[2] = target: T1, Adrenergic receptor alpha-1 (Rattus norvegicus, UniProt P15823+P23944+P43140); assay: Binding affinity to Alpha-1 adrenergic receptor by displacement of [3H]prazosin; format: protein assay
T1 sequence (P15823 whole entry): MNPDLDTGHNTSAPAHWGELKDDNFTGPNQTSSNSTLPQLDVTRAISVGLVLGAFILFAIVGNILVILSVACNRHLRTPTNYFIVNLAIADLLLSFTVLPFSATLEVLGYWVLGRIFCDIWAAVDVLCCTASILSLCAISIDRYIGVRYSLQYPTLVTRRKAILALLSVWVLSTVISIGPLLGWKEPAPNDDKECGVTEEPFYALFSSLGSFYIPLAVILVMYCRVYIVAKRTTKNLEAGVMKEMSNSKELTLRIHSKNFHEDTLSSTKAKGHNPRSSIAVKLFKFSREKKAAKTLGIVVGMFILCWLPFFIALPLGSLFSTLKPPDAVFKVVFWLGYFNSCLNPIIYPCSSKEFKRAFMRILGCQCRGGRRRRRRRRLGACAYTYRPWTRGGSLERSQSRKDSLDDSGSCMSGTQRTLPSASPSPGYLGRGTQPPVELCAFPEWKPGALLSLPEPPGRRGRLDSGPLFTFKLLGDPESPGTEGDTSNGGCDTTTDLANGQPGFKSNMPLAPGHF
T1 sequence (P23944 whole entry): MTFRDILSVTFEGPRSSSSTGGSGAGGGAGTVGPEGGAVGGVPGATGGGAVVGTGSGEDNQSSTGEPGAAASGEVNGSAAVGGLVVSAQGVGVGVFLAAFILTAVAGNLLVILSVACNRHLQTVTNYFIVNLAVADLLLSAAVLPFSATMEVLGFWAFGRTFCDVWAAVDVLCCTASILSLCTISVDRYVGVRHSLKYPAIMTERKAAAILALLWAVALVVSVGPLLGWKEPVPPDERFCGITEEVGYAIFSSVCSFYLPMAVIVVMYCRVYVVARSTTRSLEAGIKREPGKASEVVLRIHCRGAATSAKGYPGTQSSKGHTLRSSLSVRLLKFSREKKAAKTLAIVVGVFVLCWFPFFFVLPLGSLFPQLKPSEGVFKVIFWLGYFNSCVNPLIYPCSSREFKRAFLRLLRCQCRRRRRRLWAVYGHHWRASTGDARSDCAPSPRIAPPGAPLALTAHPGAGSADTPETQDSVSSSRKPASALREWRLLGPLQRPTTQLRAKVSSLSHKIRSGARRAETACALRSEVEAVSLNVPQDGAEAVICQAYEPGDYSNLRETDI
T1 sequence (P43140 whole entry): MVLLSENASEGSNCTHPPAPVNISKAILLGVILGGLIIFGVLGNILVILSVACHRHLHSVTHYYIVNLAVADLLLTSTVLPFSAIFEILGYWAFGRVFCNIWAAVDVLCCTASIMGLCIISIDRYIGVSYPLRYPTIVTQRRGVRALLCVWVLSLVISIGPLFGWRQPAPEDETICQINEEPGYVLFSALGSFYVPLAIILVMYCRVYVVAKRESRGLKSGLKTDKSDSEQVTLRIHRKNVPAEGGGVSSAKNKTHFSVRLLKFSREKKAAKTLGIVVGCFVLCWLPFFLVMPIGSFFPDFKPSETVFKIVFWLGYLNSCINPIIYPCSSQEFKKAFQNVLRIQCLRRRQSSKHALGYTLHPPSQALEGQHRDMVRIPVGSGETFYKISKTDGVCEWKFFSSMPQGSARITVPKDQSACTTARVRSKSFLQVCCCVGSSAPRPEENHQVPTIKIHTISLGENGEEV

Rattus norvegicus [3] = assay: Percent reduction of SHR (Spontaneous Hypertensive Rat) blood pressure at 4.5 hr at a dose 10 mg/kg peroral administration; format: functional; details: route oral
[4] = target: T2, Adrenergic receptor alpha-2 (Rattus norvegicus, UniProt P22086+P19328+P22909); assay: Binding affinity to alpha-2 adrenergic receptor by displacement of [3H]clonidine; format: protein assay
T2 sequence (P22086 whole entry): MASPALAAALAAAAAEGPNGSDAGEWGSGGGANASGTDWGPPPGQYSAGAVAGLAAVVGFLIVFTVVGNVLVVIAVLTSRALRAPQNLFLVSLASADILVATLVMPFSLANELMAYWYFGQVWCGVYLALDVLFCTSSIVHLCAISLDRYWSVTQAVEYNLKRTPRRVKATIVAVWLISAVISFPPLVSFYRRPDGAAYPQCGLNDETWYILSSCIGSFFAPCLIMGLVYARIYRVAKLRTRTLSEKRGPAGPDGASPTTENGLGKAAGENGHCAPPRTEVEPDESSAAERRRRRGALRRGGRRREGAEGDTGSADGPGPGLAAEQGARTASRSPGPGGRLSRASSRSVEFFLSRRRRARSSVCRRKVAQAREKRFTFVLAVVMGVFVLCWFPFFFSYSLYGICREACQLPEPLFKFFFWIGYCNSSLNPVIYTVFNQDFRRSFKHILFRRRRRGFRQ
T2 sequence (P19328 whole entry): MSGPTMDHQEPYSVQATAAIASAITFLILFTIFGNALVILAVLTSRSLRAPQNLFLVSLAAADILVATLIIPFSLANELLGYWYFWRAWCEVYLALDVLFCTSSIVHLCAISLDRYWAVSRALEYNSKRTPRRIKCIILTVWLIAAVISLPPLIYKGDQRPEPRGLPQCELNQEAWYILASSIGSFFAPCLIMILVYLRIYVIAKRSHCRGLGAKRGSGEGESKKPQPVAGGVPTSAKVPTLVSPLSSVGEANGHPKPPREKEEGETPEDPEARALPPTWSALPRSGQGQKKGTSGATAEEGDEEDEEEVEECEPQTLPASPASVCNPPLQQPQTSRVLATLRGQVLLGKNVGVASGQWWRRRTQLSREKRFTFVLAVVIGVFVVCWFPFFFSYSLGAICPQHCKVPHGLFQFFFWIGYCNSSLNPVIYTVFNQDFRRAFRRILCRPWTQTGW
T2 sequence (P22909 whole entry): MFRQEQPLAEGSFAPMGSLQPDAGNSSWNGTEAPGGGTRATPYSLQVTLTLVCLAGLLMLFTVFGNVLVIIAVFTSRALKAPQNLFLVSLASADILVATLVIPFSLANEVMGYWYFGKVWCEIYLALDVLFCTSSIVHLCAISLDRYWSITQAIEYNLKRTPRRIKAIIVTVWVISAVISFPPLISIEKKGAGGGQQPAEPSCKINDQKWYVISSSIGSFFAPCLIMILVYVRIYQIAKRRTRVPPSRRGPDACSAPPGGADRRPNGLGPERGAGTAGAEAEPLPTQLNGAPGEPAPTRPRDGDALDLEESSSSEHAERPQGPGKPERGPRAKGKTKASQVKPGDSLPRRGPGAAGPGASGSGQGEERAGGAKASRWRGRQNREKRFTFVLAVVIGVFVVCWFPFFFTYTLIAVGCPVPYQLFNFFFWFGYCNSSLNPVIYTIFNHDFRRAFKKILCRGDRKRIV

[5] = Ionization constant of the compound
Rattus norvegicus [6] = assay: Percent reduction of SHR (Spontaneous Hypertensive Rat) blood pressure at 1 hr at a dose 3 mg/kg peroral administration; format: functional; details: route oral
Rattus norvegicus [7] = assay: Percent reduction of SHR (Spontaneous Hypertensive Rat) blood pressure at 4.5 hr at a dose 3 mg/kg peroral administration; format: functional; details: route oral
Rattus norvegicus [8] = assay: Percent reduction of SHR (Spontaneous Hypertensive Rat) blood pressure at 4.5 hr at a dose 3 mg/kg peroral administration; details: route oral
Rattus norvegicus [9] = assay: Percent reduction of SHR (Spontaneous Hypertensive Rat) blood pressure at 1 hr at a dose 3 mg/kg peroral administration; details: route oral

SMILES: COc1cc2cc(N3CCN(C(=O)c4ccco4)CC3)nc(N)c2cc1OC
- Reduction (Rattus norvegicus [1]): 4%
- Ki ([2]; read-out: Ki): 160 nM
- Reduction (Rattus norvegicus [3]): 6%

SMILES: COc1cc2nc(N(C)C)nc(N)c2cc1OC
- Ki [4]: > 1000 nM
- pKa [5]: 8.1
- Ki ([2]; read-out: Ki): 4.1 nM

SMILES: COc1cc2cc(N(C)C)nc(N)c2cc1OC
- Ki [4]: >> 1 uM
- Reduction (Rattus norvegicus [1]): 12%
- pKa [5]: 7.1
- Ki [2]: >> 1 uM
- Reduction (Rattus norvegicus [3]): 10%

SMILES: COc1cc2nc(N3CCN(C(=O)c4ccco4)CC3)nc(N)c2cc1OC [PRAZOSIN]
- pKa [5]: 6.8
- Reduction (Rattus norvegicus [6]): 24%
- Reduction (Rattus norvegicus [7]): 15%

SMILES: COc1cc2nc(N(C)C)cc(N)c2cc1OC
- Ki [4]: > 1000 nM
- Reduction (Rattus norvegicus [8]): 11%
- pKa [5]: 9.3
- Reduction (Rattus norvegicus [9]): 12%
- Ki ([2]; read-out: Ki): 11.4 nM

SMILES: COc1cc2cc(N3CCCCC3)nc(N)c2cc1OC
- Ki [4]: >> 1 uM
- Reduction (Rattus norvegicus [1]): 15%
- Ki [2]: >> 1 uM
- Reduction (Rattus norvegicus [3]): 11%
